Several values for one entry are separate records, joined by “and”; a condition that tells them apart may be missing. Equal values may be shown once.
Molecular target: T1, HEK 293 GPR73 (prokineticin 1 receptor) expressing cells (Homo sapiens, UniProt Q8TCW9)
T1 construct: expressed in transfected cells; host or cells: HEK 293
Test: PK1 functional assay: screening for PK1 antagonists on the FLIPR (calcium fluorescence)
Type: cell-based
Settings: HEK 293 GPR73 cells; for IC50: PK1 ligand at EC50, multiple values = repeat tests, read-out: Ca^2+ Mobilization IC50; for Ca^2+ Mobilization % Inh @10 μM: compound at 10 μM; for Ca^2+ Mobilization % Inh @10 μM / inhibition at 10 µM: multiple values = repeat tests; for inhibition at 10 µM: HEK293, compound at 10 μM, read-out: Ca^2+ Mobilization % Inh @10 μM
How it was run: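 HEK 293 cells expressing GPR73 were loaded with Calcium Plus Dye for 30 min at 37 C, then read for calcium fluorescence on FLIPR. Values were baseline-subtracted and expressed as percent of maximal control; percent inhibition is 100 minus that, and IC50 was fitted from it.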

T1 sequence (Q8TCW9 whole entry): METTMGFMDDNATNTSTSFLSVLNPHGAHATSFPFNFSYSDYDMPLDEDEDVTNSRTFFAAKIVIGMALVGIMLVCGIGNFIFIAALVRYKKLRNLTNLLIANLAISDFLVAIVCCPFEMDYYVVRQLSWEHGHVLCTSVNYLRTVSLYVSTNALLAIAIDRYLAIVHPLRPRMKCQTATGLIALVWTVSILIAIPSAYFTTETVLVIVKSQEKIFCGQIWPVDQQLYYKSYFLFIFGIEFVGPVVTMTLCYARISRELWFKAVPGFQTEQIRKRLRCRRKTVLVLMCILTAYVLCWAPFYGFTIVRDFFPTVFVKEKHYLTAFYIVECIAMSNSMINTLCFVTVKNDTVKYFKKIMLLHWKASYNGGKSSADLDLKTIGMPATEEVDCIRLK

Molecule	IC50	Ca^2+ Mobilization % Inh @10 μM	inhibition at 10 µM [%]	Ca^2+ Mobilization % Inh @10 μM (10 µM) [%]
COc1ccc(Cn2c(NCCN(C(=N)N)C(=O)c3ccccc3)nc(=O)n(Cc3ccc(F)cc3)c2=O)cc1 [Cpd 134, N-Benzoyl-N-{2-[5-(4-fluoro-benzyl)-1-(4-methoxy-benzyl)-4,6-dioxo-1,4,5,6-tetrahydro-[1,3,5]triazin-2-ylamino]-ethyl}-guanidine]	19 nM and 28 nM	97, 97%		
COc1ccc(Cn2c(NCCNC(=N)Nc3ncccn3)nc(=O)n(Cc3ccc(F)cc3)c2=O)cc1 [Cpd 135]	13 nM and 24 nM		100	94
COc1ccc(Cn2c(N[C@@H](C)[C@H](C)NC(=N)N)nc(=O)n(Cc3ccc(F)cc3)c2=O)cc1 [Cpd 136]	> 10000 nM		50	
COc1ccc(Cn2c(N[C@H](C)[C@@H](C)NC(=N)N)nc(=O)n(Cc3ccc(F)cc3)c2=O)cc1 [Cpd 137]	15 nM and 31 nM		101	
COc1ccc(Cn2c(NCCNC(=N)Nc3nc4c(c(C(F)(F)F)n3)CCCC4)nc(=O)n(Cc3ccc(F)cc3)c2=O)cc1 [Cpd 138]	1340 nM		70	
COc1ccc(Cn2c(NCCNC(=N)N3CCOCC3)nc(=O)n(Cc3ccc(F)cc3)c2=O)cc1 [Cpd 140]	455 nM		89	
N=C(N)NCCNc1nc(=O)n(Cc2ccc(Cl)cc2)c(=O)n1Cc1ccco1 [Cpd 141]	1840 nM		73	
COc1ccc(Cn2c(=O)nc(NCCNC(=N)N)n(Cc3ccc(O)cc3)c2=O)cc1 [Cpd 143, N-{2-[1-(4-Hydroxy-benzyl)-5-(4-methoxy-benzyl)-4,6-dioxo-1,4,5,6-tetrahydro-[1,3,5]triazin-2-ylamino]-ethyl}-guanidine]	6 nM and 27 nM		100	
COc1ccc(Cn2c(NCCCCCCNC(=N)N)nc(=O)n(Cc3ccc(Cl)cc3)c2=O)cc1 [Cpd 144]	1330 nM		77	
COc1ccc(CCn2c(=O)nc(NCCNC(=N)N)n(Cc3ccc(OC)cc3)c2=O)cc1 [Cpd 145]	461 nM		86	
COc1ccc(CCCn2c(=O)nc(NCCNC(=N)N)n(Cc3ccc(OC)cc3)c2=O)cc1 [Cpd 146]	670 nM		87	
COC(=O)c1ccc(Cn2c(NCCNC(=N)N)nc(=O)n(Cc3ccc(Cl)c(Cl)c3)c2=O)cc1 [Cpd 147]			82	
CCCCOc1ccc(Cn2c(NCCNC(=N)N)nc(=O)n(Cc3ccccc3)c2=O)cc1 [Cpd 148]	> 10000 nM		41	
NC(N)=NCCNc1nc(=O)n(Cc2ccc(Cl)cc2)c(=O)n1Cc1ccccc1 [Cpd 149]	4780 nM	64%		
N=C(N)NCCNc1nc(=O)n(Cc2ccc(Cl)cc2)c(=O)n1Cc1ccoc1 [Cpd 150]	1870 nM	71%		
CCCNC(=N)NCCNc1nc(=O)n(Cc2ccc(F)cc2)c(=O)n1Cc1ccc(OC)cc1 [Cpd 154]	3 nM and 6 nM		99	98
CNC(=N)NCCNc1nc(=O)n(Cc2ccc(F)cc2)c(=O)n1Cc1ccc(OC)cc1 [Cpd 156]	4 nM and 7 nM		102	99
COc1ccc(Cn2c(CCCNC(=N)N)cc(=O)n(Cc3ccc(OC)cc3)c2=O)cc1 [Cpd 160, N-{3-[1,3-Bis-(4-methoxy-benzyl)-2,6-dioxo-1,2,3,6-tetrahydro-pyrimidin-4-yl]-propyl}guanidine]	616 nM		89	
N-{2-[5-Benzyl-1-(4-methoxy-benzyl)-4,6-dioxo-1,4,5,6-tetrahydro-[1,3,5]triazin-2-ylamino]-ethyl}-oxyguanidine [Cpd 27]	1970 nM	55%		

Further molecules by falling IC50, results first:

IC50	Ca^2+ Mobilization % Inh @10 μM	inhibition at 10 µM [%]	Ca^2+ Mobilization % Inh @10 μM (10 µM) [%]	Molecule
323 nM		90		COc1ccc(Cn2c(NCCCCCNC(=N)N)nc(=O)n(Cc3ccc(Cl)cc3)c2=O)cc1 [Cpd 142]
254 nM		93		COc1ccc(Cn2c(OCCNC(=N)N)cc(=O)n(Cc3ccc(OC)cc3)c2=O)cc1 [Cpd 158, N-{2-[1,3-Bis-(4-methoxy-benzyl)-2,6-dioxo-1,2,3,6-tetrahydro-pyrimidin-4-yloxy]-ethyl}-guanidine]
197 nM		92		COc1ccc(Cn2c(C(=O)NCCNC(=N)N)cc(=O)n(Cc3ccc(OC)cc3)c2=O)cc1 [Cpd 157, 1,3-Bis-(4-methoxy-benzyl)-2,6-dioxo-1,2,3,6-tetrahydro-pyrimidine-4-carboxylic acid (2-guanidino-ethyl)-amide]
18 nM		95		COc1ccc(Cn2c(NCCNC(=N)Nc3ccc(C)cn3)nc(=O)n(Cc3ccc(F)cc3)c2=O)cc1 [Cpd 139]
16 nM		99		CCNC(=N)NCCNc1nc(=O)n(Cc2ccc(F)cc2)c(=O)n1Cc1ccc(OC)cc1 [Cpd 155]
13 nM		99		COc1ccc(Cn2c(NCCNC(=N)NC(C)C)nc(=O)n(Cc3ccc(F)cc3)c2=O)cc1 [Cpd 153]
13 nM		98		COc1ccc(Cn2c(SCCNC(=N)N)cc(=O)n(Cc3ccc(OC)cc3)c2=O)cc1 [Cpd 159, N-{2-[1,3-Bis-(4-methoxy-benzyl)-2,6-dioxo-1,2,3,6-tetrahydro-pyrimidin-4-ylsulfanyl]-ethyl}-guanidine]
9 nM		97		C=CCNC(=N)NCCNc1nc(=O)n(Cc2ccc(F)cc2)c(=O)n1Cc1ccc(OC)cc1 [Cpd 152]
3 nM		99		COc1ccc(Cn2c(NCCNC(=N)NC(C)=O)nc(=O)n(Cc3ccc(F)cc3)c2=O)cc1 [Cpd 151]
